Assays:
[1] = system: various anti-gD2 antibodies; experiment: Reactivity of gD variants with anti-gD2 antibodies (competitive ELISA); format: binding, human; details: for Reactivity with anti-gD2 antibody 1 / Reactivity with anti-gD2 antibody 5 / Reactivity with anti-gD2 antibody 13 / Reactivity with anti-gD2 antibody 72 / Reactivity with anti-gD2 antibody 75 / Reactivity with anti-gD2 antibody 78 / Reactivity with anti-gD2 antibody 82: immobilized gD variant
Description: Each anti-gD2 monoclonal antibody and each gD variant were expressed using an Expi293 expression system.

HVEM = molecular target: T1, HVEM (Homo sapiens, UniProt Q92956); experiment: Reactivity of HVEM with gD variants (competitive ELISA); format: binding; details: compared to the original gD1-315; FIG. 14
T1 sequence (Q92956 39-202): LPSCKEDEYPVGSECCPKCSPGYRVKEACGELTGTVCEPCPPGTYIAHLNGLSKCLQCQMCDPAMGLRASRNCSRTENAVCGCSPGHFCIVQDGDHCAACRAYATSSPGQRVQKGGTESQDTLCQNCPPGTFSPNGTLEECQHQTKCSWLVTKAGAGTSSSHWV
Method: From the above discussion, it can be strongly inferred that each variant takes the structure in which FR1 is bound to the receptor binding region. The reactivity of HVEM with each variant was then measured by competitive ELISA.
HVEM can bind gD for the first time when FR1 binds to the receptor binding region and takes a characteristic hairpin structure. […] FR3-deficient gD1-275v5-55 promoted FR1 binding and further HVEM binding over other gD1-315-based variants in which FR3 was present.

HSV-2 MS strain = experiment: Mouse infection-prevention test of modified gD (genital herpes infection model); format: in vivo, BALB/c mice; design: key to Determination (vs gD1-315) / Determination# (vs gD1-315): ++: minimum effective dose based on the Significant difference test in three-fold common ratio relative to gD1-315(WT) of two or more doses stronger; +: those of one dose stronger; ±: those of an equivalent value
Method: Immunogenicity test of the modified gD antigen was performed using the wild-type gD antigen gD1-315 (WT) as a positive control and saline as a negative control. A predetermined amount of antigen was dissolved in saline for injection (saline) with MPLA (10 μg/mouse) and CpG (1 μg/mouse) and immunized to mice at a volume of 200 μL/mouse. BALB/c mice (5 weeks old, female) were used for the study and immunized subcutaneously in back at 2-week intervals for a total of 3 times (N=4 cases per group). Two weeks after the final immunization (third dose), blood was collected and serum was prepared for each individual. The prepared serum was serially diluted and assessed for neutralizing antibody-inducing activity against HSV-2 (50% plaque number-reducing activity).
An infection-prevention test in the preventive administration of modified gD antigen was performed using a mouse genital herpes infection model. Similar to the mouse immunogenicity test described above, mice were immunized with the number of N=10 cases per group. Depo-Provera was inoculated subcutaneously at 2 mg/mouse 6 days prior to viral inoculation to improve the multiplicity of infection upon viral inoculation 2 weeks after final immunization (third dose). 5×10^5 PFU/20 μL HSV-2 MS strain was inoculated transvaginally under anesthesia and observed for 21 days. Infection prevention ability was evaluated using survival time (survival rate) as index.
The infection model of the mouse genital herpes infection model was used to evaluate infection prevention ability of various modified gD in preventive administration. The number of animal cases in each group was set to n=10, and wild-type gD (gD1-315) was used as a positive control and saline was used as a negative control. The experiments were performed a total of four times (experiments 1-4) and four doses of 0.1 μg/mouse/time, 0.03 μg/mouse/time, 0.01 μg/mouse/time and 0.003 μg/mouse/time were set for all of the positive control, negative control, and subject modified gD antigen. Depo-Provera was inoculated subcutaneously at 2 mg/mouse 6 days prior to viral inoculation to improve the multiplicity of infection upon viral inoculation 2 weeks after final immunization (third dose). 5×10^5 PFU/20 HSV-2 MS strain was inoculated transvaginally under anesthesia and observed for 21 days. Infection prevention ability was evaluated using survival time (survival rate) as index. Mean values of those were plotted in the graph. A Significant difference test for the negative control group was performed by the Kaplan-Meier method, and those with a minimum effective dose based on the Significant difference test in three-fold common ratio relative to wild type gD of two or more doses stronger were determined to be “++”, those of one dose stronger were determined to be “+”, and those of an equivalent value were determined to be “±”.

[2] = Experiment 1, 0.003 μg/head/time
[3] = Experiment 1, 0.01 μg/head/time
[4] = Experiment 1, 0.03 μg/head/time
[5] = Experiment 2, 0.003 μg/head/time
[6] = Experiment 2, 0.01 μg/head/time
[7] = Experiment 2, 0.03 μg/head/time
[8] = Experiment 3, 0.003 μg/head/time
[9] = Experiment 3, 0.01 μg/head/time
[10] = Experiment 3, 0.03 μg/head/time
[11] = Experiment 4, 0.003 μg/head/time
[12] = Experiment 4, 0.01 μg/head/time
[13] = Experiment 4, 0.03 μg/head/time

gD1-315: wild-type soluble gD ectodomain 1-315 of HSV-2 333 strain, SEQ ID NO: 1; positive control [reference compound]
Reactivity with anti-gD2 antibody 1 [1]: + ((+): 70% or more) | Reactivity with anti-gD2 antibody 5 [1]: + ((+): 70% or more) | Reactivity with anti-gD2 antibody 13 [1]: + ((+): 70% or more) | Reactivity with anti-gD2 antibody 72 [1]: + ((+): 70% or more) | Reactivity with anti-gD2 antibody 75 [1]: + ((+): 70% or more) | Reactivity with anti-gD2 antibody 78 [1]: + ((+): 70% or more) | Reactivity with anti-gD2 antibody 82 [1]: + ((+): 70% or more) | Reactivity with HVEM (HVEM): little reaction | Mean survival time (HSV-2 MS strain; [2]): 6.5 days | Significant difference test (vs saline) (HSV-2 MS strain; [2]): N.S. | Mean survival time (HSV-2 MS strain; [3]): 7 days | Significant difference test (vs saline) (HSV-2 MS strain; [3]): N.S. | Mean survival time (HSV-2 MS strain; [4]): >21 days | Significant difference test (vs saline) (HSV-2 MS strain; [4]): *** (*** p < 0.001) | Mean survival time (HSV-2 MS strain; Experiment 1, 0.1 μg/head/time): >21 days | Significant difference test (vs saline) (HSV-2 MS strain; Experiment 1, 0.1 μg/head/time): *** (*** p < 0.001) | Mean survival time (HSV-2 MS strain; [5]): 7.5 days | Significant difference test (vs saline) (HSV-2 MS strain; [5]): N.S. | Mean survival time (HSV-2 MS strain; [6]): 7.5 days | Significant difference test (vs saline) (HSV-2 MS strain; [6]): N.S. | Mean survival time (HSV-2 MS strain; [7]): >14.5 days | Significant difference test (vs saline) (HSV-2 MS strain; [7]): N.S. | Mean survival time (HSV-2 MS strain; Experiment 2, 0.1 μg/head/time): >22 days | Significant difference test (vs saline) (HSV-2 MS strain; Experiment 2, 0.1 μg/head/time): *** (*** p < 0.001) | Mean survival time (HSV-2 MS strain; [8]): 6 days | Significant difference test (vs saline) (HSV-2 MS strain; [8]): N.S. | Mean survival time (HSV-2 MS strain; [9]): 8 days | Significant difference test (vs saline) (HSV-2 MS strain; [9]): * (* 0.01 = < p < 0.05) | Mean survival time (HSV-2 MS strain; [10]): >21 days | Significant difference test (vs saline) (HSV-2 MS strain; [10]): *** (*** p < 0.001) | Mean survival time (HSV-2 MS strain; Experiment 3, 0.1 μg/head/time): >21 days | Significant difference test (vs saline) (HSV-2 MS strain; Experiment 3, 0.1 μg/head/time): *** (*** p < 0.001) | Mean survival time (HSV-2 MS strain; [11]): 8 days | Significant difference test (vs saline) (HSV-2 MS strain; [11]): N.S. | Mean survival time (HSV-2 MS strain; [12]): 7.5 days | Significant difference test (vs saline) (HSV-2 MS strain; [12]): N.S. | Mean survival time (HSV-2 MS strain; [13]): >16.5 days | Significant difference test (vs saline) (HSV-2 MS strain; [13]): N.S. | Mean survival time (HSV-2 MS strain; Experiment 4, 0.1 μg/head/time): >21 days | Significant difference test (vs saline) (HSV-2 MS strain; Experiment 4, 0.1 μg/head/time): *** (*** p < 0.001)

B1: gD1-315v5: gD1-315 with glycochains at R186 (SC-A) and P50 (SC-F) (protein)
chain: KYALADPSLKMADPNRFRGKNLPVLDQLTDPPGVKRVYHIQPSLEDPFQNASIPITVYYAVLERACRSVLLHAPSEAPQIVRGASDEARKHTYNLTIAWYRMGDNCAIPITVMEYTECPYNKSLGVCPIRTQPRWSYYDSFSAVSEDNLGFLMHAPAFETAGTYLRLVKINDWTEITQFILEHRANASCKYALPLRIPPAACLTSKAYQQGVTVDSIGMLPRFIPENQRTVALYSLKIAGWHGPKPPYTSTLLPPELSDTTNATQPELVPEDPEDSALLEDPAGTVSSQIPPNWHIPSIQDVAPHHAPAAPSNPGHHHHHH
Relative reactivity with antibody No. 82 (gD1-315 wild-type set to 1) ([1]; FIG. 13): substantially similar reactivity | Reactivity with anti-gD2 antibody 1 [1]: + ((+): 70% or more) | Reactivity with anti-gD2 antibody 5 [1]: − ((−): less than 30%) | Reactivity with anti-gD2 antibody 13 [1]: + ((+): 70% or more) | Reactivity with anti-gD2 antibody 72 [1]: ± ((±): 30% or more and less than 70%) | Reactivity with anti-gD2 antibody 75 [1]: − ((−): less than 30%) | Reactivity with anti-gD2 antibody 78 [1]: − ((−): less than 30%) | Reactivity with anti-gD2 antibody 82 [1]: + ((+): 70% or more) | Reactivity with HVEM (HVEM): little reaction | Mean survival time (HSV-2 MS strain; [2]): 6.5 days | Significant difference test (vs saline) (HSV-2 MS strain; [2]): N.S. | Mean survival time (HSV-2 MS strain; [3]): >21 days | Significant difference test (vs saline) (HSV-2 MS strain; [3]): *** (*** p < 0.001) | Mean survival time (HSV-2 MS strain; [4]): >21 days | Significant difference test (vs saline) (HSV-2 MS strain; [4]): *** (*** p < 0.001) | Mean survival time (HSV-2 MS strain; Experiment 1, 0.1 μg/head/time): >21 days | Significant difference test (vs saline) (HSV-2 MS strain; Experiment 1, 0.1 μg/head/time): *** (*** p < 0.001) | Determination (vs gD1-315) (HSV-2 MS strain; Experiment 1, minimum effective dose relative to gD1-315(WT)): +

From US11357847B2, “Modified HSV gD protein and vaccine containing same” (KM Biologics Co., Ltd., priority 2017, dated 2022)
